This is an account of results in PubChem BioAssay (NCI).

The structures appear in SMILES notation.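 All cell lines were grown in 96-well plates and treated with compound for 48 hours. TGI: concentration producing complete growth inhibition.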

Common to all, as to experiment: growth of human tumour cells (NCI), 48 h
Experiment [1] has as its system HL-60(TB) leukemia.
Experiment [2] concerns A549 NSCLC.
Experiment [3] relates to DU-145 prostate.
In experiment [4] the test system is HCT-116 colon.
Experiment [5] deals with M14 melanoma.
The subject of experiment [6] is SF-539 CNS.
In experiment [7] the test system is SF-295 CNS.
The test system of experiment [8] is UO-31 renal.
For experiment [9], the system named is SNB-19 CNS.
Experiment [10] relates to SK-MEL-5 melanoma.
The test system of experiment [11] is A498 renal.
In experiment [12] the test system is OVCAR-3 ovarian.
The test system of experiment [13] is NCI-H460 lung.
The test system of experiment [14] is SNB-75 CNS.
Experiment [15] has as its system HOP-92 NSCLC.
In experiment [16] the test system is T-47D breast.
The test system of experiment [17] is UACC-257 melanoma.
Experiment [18] has as its system MCF7 breast.
Experiment [19] deals with UACC-62 melanoma.

`Cc1ccc(/C=C2\Cc3cccc(C)c3C2=O)c(C(=O)O)c1`: the TGI in experiment [1], in experiment [2], in experiment [3], in [4], in experiment [5] and in experiment [6] was over 100 µM each time. In addition, the TGI in experiment [7] is over 100 µM; in [8] it was 31.4 µM; in experiment [9], over 100 µM; in experiment [10], over 100 µM; in experiment [11] it was over 100 µM; in experiment [12], over 100 µM. Moreover, the TGI is over 100 µM in experiment [13]; over 100 µM in experiment [14]; 53.6 µM in [15]; over 100 µM in experiment [16]; over 100 µM in experiment [17].
Take `Clc1cc(Br)c2c3c(c(Br)cc(Cl)c13)C(Br)=C2Br`: the TGI in [1] was 56 µM; in experiment [2] it was over 100 µM; in experiment [3] it was 90.9 µM; in [4] it was 40.3 µM; in experiment [5], over 100 µM; in [6], 35.7 µM. For the same molecule, the TGI in experiment [7] was over 100 µM; in experiment [8], over 100 µM; in [9] it was over 100 µM; in [18], over 100 µM; in [19] it was 79.7 µM; in [11], over 100 µM. The TGI is over 100 µM in [12], over 100 µM in [13], 71.7 µM in experiment [14] and over 100 µM in experiment [17].
As to `O=c1[nH]cnc2c1CCCN2`, the TGI in [1], in [2], in experiment [4], in experiment [5], in experiment [7] and in experiment [8] was over 100 µM in each case. The TGI in experiment [9], in experiment [10], in [19], in experiment [12], in [14] and in experiment [15] was over 100 µM in each case. The TGI in [17] was over 100 µM.
Regarding `Cc1cc(-c2nc3ccc(F)cc3s2)ccc1N`, the TGI in [2], in experiment [3], in experiment [4], in experiment [5], in experiment [6] and in [7] was over 100 µM in each case. Also, the TGI in experiment [8], in experiment [9], in experiment [10], in experiment [18], in experiment [19] and in experiment [11] was over 100 µM each time. Also, the TGI in experiment [12], in [14], in experiment [15] and in experiment [17] was over 100 µM in each case.
For the molecule `NCCC(=O)N[C@@H](Cc1cc(O)c(O)c(SCC(NC(=O)CC[C@H](N)C(=O)O)C(=O)NCC(=O)O)c1)C(=O)O` (some centres undefined), the TGI in [2], in experiment [3], in [4], in experiment [5], in experiment [7] and in experiment [8] was over 50 µM throughout. Further, the TGI in experiment [9], in experiment [18], in [19], in [11], in experiment [12] and in experiment [13] was over 50 µM throughout. The TGI in experiment [14], in [15] and in experiment [17] was over 50 µM each time.
As to `CC(C)(C)OC(=O)C1CC[C@@H](CC(=O)Oc2ccc([N+](=O)[O-])cc2)N1` (some centres undefined), the TGI in experiment [1], in experiment [2], in [3], in experiment [4], in [5] and in experiment [6] was over 100 µM throughout. Further, the TGI in [7], in [8], in experiment [9], in experiment [10], in experiment [18] and in experiment [19] was over 100 µM throughout. The TGI in experiment [11], in experiment [12], in experiment [13], in experiment [14], in [15] and in experiment [17] was over 100 µM throughout.
For `C[Si](C)(OCCS(=O)(=O)O)OC(=C1S(=O)(=O)OCCOS1(=O)=O)c1cccc2ccccc12`, the TGI in experiment [1] was 36.9 µM; in experiment [2], over 100 µM; in [3], over 100 µM; in experiment [4], over 100 µM; in experiment [5], over 100 µM; in experiment [6] it was over 100 µM. Also, the TGI in experiment [7], in experiment [8], in [9], in experiment [10], in experiment [18] and in experiment [11] was over 100 µM each time. The TGI in [12], in experiment [13], in [14], in experiment [15] and in [17] was over 100 µM throughout.
For the molecule `O=c1[nH]c(-n2[nH]c3c(c2=O)CCCC3)nc(O)c1-c1ccccc1`, the TGI in experiment [1], in experiment [3], in [4], in experiment [5], in experiment [7] and in experiment [8] was over 100 µM in each case. Also, the TGI in experiment [9], in experiment [10], in experiment [19], in experiment [11], in experiment [13] and in [15] was over 100 µM each time. Also, the TGI in [16] and in experiment [17] was over 100 µM each time.
In the case of `O=c1c2cc([N+](=O)[O-])ccc2n2n1CCCC2`, the TGI in experiment [1], in experiment [2], in experiment [3], in [4], in [5] and in experiment [6] was over 100 µM in each case. In addition, the TGI in experiment [7], in experiment [8], in experiment [9], in experiment [10], in experiment [19] and in experiment [11] was over 100 µM throughout. For the same molecule, the TGI in [12], in experiment [13], in [14], in experiment [15], in [16] and in experiment [17] was over 100 µM throughout.
